From US20250186461A1, “METHODS AND COMPOSITIONS FOR TREATING AND/OR PREVENTING HERNIAS” (Northwestern University, priority 2023, published 2025)
“Also recorded” adds a separate entry of the source.

Key:
[1] = system: Arom^hum mice; experiment: Hernia prevention in Arom^hum mice (treatment before hernia formation); format: in vivo, mouse; details: for hernia formation / hernia size: male Arom^hum mice, 12-week treatment started at 3-3.5 weeks of age (before hernia formation)
Text: Our study design is robust, utilizing Arom^hum mice with endpoints examined after treatment with placebo or anti-P4/PGR, and compared to those of WT littermates using 2 different tissue sites: UAM and LAM (normal or weakened/herniated). Inguinal hernia affects predominantly men vs. women (10:1 ratio). Inguinal hernias are unique to male mice and aged men. […] Here, we will focus on the effects of P4/PGR action on skeletal muscle integrity and hernia formation in males, and our work will be carried out in male mice or tissues primarily from men over 50 years of age. We will use mouse or human tissues or primary cells to closely recapitulate in vivo pathology.
The mouse scrotum is connected to the peritoneal cavity with a narrow funicular (or inguinal) canal, with walls composed of LAM tissue. Structurally normal LAM tissue is essential to maintain the tone of this canal and prevent herniation of the bowel.
Experiment 1a1: Does the addition of P4 to E2 treatment accelerate LAM fibrosis and hernia formation in WT mice? […] We hypothesize that this effect is primarily mediated by the E2 induction of PGR expression in LAM fibroblasts. […] If this were true, the addition of pharmacologic quantities of P4 (75 mg/pellet for 12-week release)^73 to E2 (0.3 mg/pellet for 12-week release)^23-25 in WT mice should accelerate this phenotype. […] See Statistical Methods above for sample size calculation. Hernia surface area will be measured using a digital caliper and calculated as previously described (length×width)^19. At the designated endpoints, LAM and UAM (control) from each mouse will be resected, with one-half of the tissue snap-frozen in liquid nitrogen, and the other half fixed in 4% phosphate-buffered paraformaldehyde for histological and IHC analyses (see below). All tissue and serum (for P4/E2 levels) samples will be collected between 10:00 AM and noon to avoid possible variability in daily hormone fluctuations. […] We will continue to complete the rest of the proposed study in this subaim. We will also assess whether and extent of muscle fibrosis and atrophy will be induced in P4+E2-induced large hernias and E2-induced small hernias. […] P4 antagonists show various levels of selectivity for PGR. […] The use of 3 distinct P4/PGR antagonists with different properties will establish the role of PGR in muscle fibrosis and hernia.
(§1) Hernias will be classified as small, medium, or large if the bulging area through muscle tissue is 125-175 mm^2, 175-225 mm^2, or >225 mm^2, respectively. […] We will assess whether muscle fibrosis, atrophy, and hernia are arrested or reversed. […] Hernia size will be measured. After completion of treatment, the mice will be dissected, and LAM, UAM (control), and serum will be collected. A total of 100 mg of tissue (LAM and UAM) will be obtained and frozen for measurement of tissue E2/P4.

[2] = system: Arom^hum mice; experiment: Halting progression of small/medium-sized hernias in Arom^hum mice; format: in vivo, mouse; details: 12-week treatment started when small/medium-sized hernias were formed, n=10, vs placebo
Description: The treatment started when small/medium-sized hernias were formed. ****p<0.0001.
as §1, with “E2/P4. Circulating and tissue E2/P4 levels will be measured using LC-MS^2. We will use immunoblotting and IHC to determine PGR expression in LAM and UAM tissues. PGR target gene expression (Greb1, Cyp7b1) will be measured in paraformaldehyde-fixed LAM tissues using RNAScope and IHC. […] We will continue to complete the rest of the proposed study in this subaim. We will also assess whether muscle fibrosis, atrophy, and large hernia are halted.” for “E2/P4.”

[3] = system: LAM fibroblasts from Arom^hum mice; experiment: Click-iT EdU proliferation assay; format: cell-based, mouse; details: 1 μM antagonist; E2 (10 nM)+R5020 (100 nM)
[4] = system: LAM primary fibroblasts from Arom^hum mice; experiment: mRNA levels of P4/PGR-responsive and fibrotic genes in LAM primary fibroblasts; format: cell-based, mouse; details: for E2+R5020-stimulated expression of Col1a1 and Col12a1, blockade: pretreatment with 1 μM antagonist
[5] = target: T1, glucocorticoid receptor (GR) (Homo sapiens, UniProt P04150); details: cited from earlier work
T1 sequence (P04150 1-777): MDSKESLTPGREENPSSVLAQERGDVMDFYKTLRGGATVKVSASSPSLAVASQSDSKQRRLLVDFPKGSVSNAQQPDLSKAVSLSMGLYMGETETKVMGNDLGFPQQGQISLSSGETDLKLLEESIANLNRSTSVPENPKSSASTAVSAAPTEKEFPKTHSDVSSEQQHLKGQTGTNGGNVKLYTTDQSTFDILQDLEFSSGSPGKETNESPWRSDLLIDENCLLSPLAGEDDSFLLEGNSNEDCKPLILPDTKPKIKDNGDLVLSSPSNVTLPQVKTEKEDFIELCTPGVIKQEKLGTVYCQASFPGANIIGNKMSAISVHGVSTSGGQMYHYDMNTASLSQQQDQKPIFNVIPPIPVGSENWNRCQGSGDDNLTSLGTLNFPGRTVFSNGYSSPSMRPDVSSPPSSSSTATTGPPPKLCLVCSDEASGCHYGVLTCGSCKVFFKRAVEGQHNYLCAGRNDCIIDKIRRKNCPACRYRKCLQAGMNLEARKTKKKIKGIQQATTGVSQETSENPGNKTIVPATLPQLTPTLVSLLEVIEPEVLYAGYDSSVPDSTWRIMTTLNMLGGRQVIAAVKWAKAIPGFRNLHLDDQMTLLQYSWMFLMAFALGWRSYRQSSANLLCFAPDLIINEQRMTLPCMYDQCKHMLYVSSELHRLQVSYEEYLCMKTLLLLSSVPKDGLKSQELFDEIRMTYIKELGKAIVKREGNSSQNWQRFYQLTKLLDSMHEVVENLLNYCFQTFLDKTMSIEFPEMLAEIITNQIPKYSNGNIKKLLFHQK

With `CC#C[C@]1(O)CC[C@H]2[C@@H]3CCC4=CC(=O)CCC4=C3[C@@H](c3ccc(N(C)C)cc3)C[C@@]21C` [RU486, Mifepristone] the “LAM fibroblast proliferation in vivo (Ki67 IHC staining)” value ([1]; Arom^hum mice, placebo or RU486, n=6) was “blocked”, the “LAM tissue fibrosis, ECM deposition and myocyte atrophy (Masson's trichrome staining)” value ([1]; Arom^hum mice, vs placebo) was “prevents LAM fibrosis, excessive ECM deposition or myocyte atrophy; also recorded: prevented LAM tissue fibrosis and atrophy in all treated Arom^hum mice” and the “PGR-positive fibroblasts in LAM tissue (PGR IHC staining)” value ([1]; Arom^hum mice, vs placebo, n=10) was “much fewer fibroblasts with PGR IHC staining; also recorded: severely reduced numbers of PGR-positive fibroblasts”. For the same compound, the scrotal area ([1]; RU486-treated Arom^hum mice vs WT littermates) was “slightly larger than that of WT littermates but was maintained within the upper limit of normal with no evidence of herniation”, the “hernia formation / hernia size” value ([1]; vs placebo) was “prevented hernia formation in Arom^hum mice; also recorded: strikingly reduced hernia size or entirely prevented hernia development in all Arom^hum mice” and the “progression (growth) of small/medium-sized hernias, hernia area” value [2] was “halted the progression of small/medium-sized hernias in Arom^hum mice; also recorded: halted the growth of small- and medium-size hernias in all treated Arom^hum mice”. For the same compound, the “inhibition of E2+R5020-stimulated LAM fibroblast proliferation” value [3] was “inhibited; also recorded: blocked”, the “E2+R5020-stimulated expression of Col1a1 and Col12a1, blockade” value [4] was “blocked” and the anti-glucocorticoid activity [5] was “has anti-glucocorticoid effects”.
With `CC(=O)O[C@]1(C(C)=O)CC[C@H]2[C@@H]3CCC4=CC(=O)CCC4=C3[C@@H](c3ccc(N(C)C)cc3)C[C@@]21C` [UPA, Ulipristal acetate] the “hernia formation / hernia size” value ([1]; vs placebo) was “prevented hernia formation in Arom^hum mice; also recorded: also prevented hernia formation”, the “progression (growth) of small/medium-sized hernias, hernia area” value [2] was “halted the progression of small/medium-sized hernias in Arom^hum mice; also recorded: halted the growth of small- and medium-size hernias in all treated Arom^hum mice” and the “inhibition of E2+R5020-stimulated LAM fibroblast proliferation” value [3] was “inhibited; also recorded: blocked”. For the same compound, the “E2+R5020-induced expression of P4/PGR-responsive (Greb1, Cyp7b1) and fibrotic genes (Adamtsl1, Col1a1, Col14a1)” value ([4]; 1 μM antagonist, pretreated 2 h before E2 (10 nM)+R5020 (100 nM)) was “significantly decreased”, the “E2+R5020-stimulated expression of Col1a1 and Col12a1, blockade” value [4] was “blocked” and the anti-glucocorticoid activity [5] was “extremely low anti-glucocorticoid activity”.
